The record followed here is the NIST ThermoML archive (doi:10.1016/j.jct.2012.03.008).

Numbers after ± are expanded uncertainties.

For the series the following is noted: Pendant drop shape.

For `CCn1cc[n+](C)c1.CO[PH](=O)[O-]` [1-ethyl-3-methylimidazolium methyl phosphonate], the surface tension liquid-gas (in general, the work needed to enlarge the surface of a liquid by unit area) (298.2 K) was found to be 49 ± 0.6 mN/m; the surface tension liquid-gas (308.4 K) is 48.3 ± 0.6 mN/m; the surface tension liquid-gas (318 K) worked out at 47.9 ± 0.8 mN/m; the surface tension liquid-gas (328.6 K) came to 47.2 ± 0.6 mN/m; the surface tension liquid-gas (338.5 K) was determined as 46.7 ± 0.6 mN/m; the surface tension liquid-gas (343.1 K) is given as 46.3 ± 0.5 mN/m.

`CCCC[n+]1ccn(C)c1.O=S(=O)([N-]S(=O)(=O)C(F)(F)F)C(F)(F)F`: the surface tension liquid-gas amounted to 33.35 ± 0.38 mN/m (298.2 K); 32.85 ± 0.37 mN/m (308.2 K); 32.25 ± 0.37 mN/m (318.2 K); 31.69 ± 0.36 mN/m (328.2 K); 31.14 ± 0.35 mN/m (338.2 K); 30.76 ± 0.35 mN/m (343.2 K).

With `CCn1cc[n+](C)c1.O=S(=O)([O-])C(F)(F)F` [1-ethyl-3-methylimidazolium trifluoromethanesulfonate], the surface tension liquid-gas by setting is: (298.2 K) 41.3 ± 0.5 mN/m; (308.1 K) 41 ± 0.45 mN/m; (318.1 K) 40.48 ± 0.44 mN/m; (328.4 K) 39.9 ± 0.7 mN/m; (338.3 K) 39.5 ± 0.7 mN/m; (344.9 K) 39.3 ± 0.43 mN/m.

Turning to `CCCCn1cc[n+](C)c1.F[P-](F)(F)(F)(F)F` [1-butyl-3-methylimidazolium hexafluorophosphate], the surface tension liquid-gas was determined as 43.81 ± 0.47 mN/m (298.1 K); 43.44 ± 0.47 mN/m (303.2 K); 42.72 ± 0.46 mN/m (313.1 K); 42.19 ± 0.46 mN/m (323.1 K); 41.61 ± 0.45 mN/m (333.1 K); 41.07 ± 0.45 mN/m (343.7 K).

Turning to `CC(=O)[O-].CCn1cc[n+](C)c1` [1-ethyl-3-methylimidazolium acetate], the surface tension liquid-gas stood at 47.06 ± 0.5 mN/m (298.1 K); 46.53 ± 0.5 mN/m (308.2 K); 45.89 ± 0.49 mN/m (318.2 K); 45.33 ± 0.48 mN/m (328.2 K); 44.74 ± 0.48 mN/m (338.3 K).

For `CCCCn1cc[n+](C)c1.F[B-](F)(F)F` [1-butyl-3-methylimidazolium tetrafluoroborate], the surface tension liquid-gas reads like this: (298 K) 45.44 ± 0.49 mN/m; (307.9 K) 44.57 ± 0.48 mN/m; (317.9 K) 43.91 ± 0.47 mN/m; (328.4 K) 43.15 ± 0.47 mN/m; (338.4 K) 42.49 ± 0.46 mN/m; (343.1 K) 42.17 ± 0.46 mN/m.

Take `CCCCn1cc[n+](C)c1.O=S(=O)([O-])C(F)(F)F` [1-butyl-3-methylimidazolium trifluoromethanesulfonate]: the surface tension liquid-gas runs as follows: (298.1 K) 35.86 ± 0.4 mN/m; (307.9 K) 35.29 ± 0.4 mN/m; (318 K) 34.95 ± 0.4 mN/m; (328.1 K) 34.64 ± 0.41 mN/m; (338.3 K) 34.3 ± 0.38 mN/m.

Regarding `CCn1cc[n+](C)c1.Cc1ccc(S(=O)(=O)[O-])cc1` [1-ethyl-3-methylimidazolium 4-methylbenzenesulfonate], the surface tension liquid-gas reads like this: (308.1 K) 45.2 ± 0.6 mN/m; (318 K) 44.2 ± 0.6 mN/m; (328.5 K) 43.6 ± 0.6 mN/m; (338.3 K) 43 ± 0.6 mN/m; (343.2 K) 42.7 ± 0.6 mN/m.

`CCn1cc[n+](C)c1.COP(=O)([O-])OC` [1-ethyl-3-methylimidazolium dimethylphosphate]: the surface tension liquid-gas runs as follows: (308.2 K) 45.3 ± 0.9 mN/m; (318 K) 44.7 ± 0.8 mN/m; (328.7 K) 44.4 ± 0.7 mN/m; (338.6 K) 43.8 ± 0.7 mN/m; (343.5 K) 43.3 ± 0.6 mN/m.

`CCn1cc[n+](C)c1.N#CN=C=[N-]` [1-ethyl-3-methylimidazolium dicyanamide]: the surface tension liquid-gas turned out to be 57.5 ± 0.8 mN/m (298.3 K); 56.6 ± 1 mN/m (308.2 K); 56.4 ± 0.8 mN/m (318.3 K); 56 ± 0.7 mN/m (328.2 K); 55 ± 0.8 mN/m (338.5 K); 54.9 ± 0.8 mN/m (343.4 K).

As to `CCn1cc[n+](C)c1.CS(=O)(=O)[O-]` [1-ethyl-3-methylimidazolium methanesulfonate], the surface tension liquid-gas runs as follows: (298.5 K) 50.9 ± 0.8 mN/m; (308 K) 50.3 ± 0.8 mN/m; (317.9 K) 49.7 ± 0.8 mN/m; (328.1 K) 49.1 ± 0.8 mN/m; (338.1 K) 48.1 ± 0.6 mN/m; (342.7 K) 47.7 ± 0.6 mN/m.

Consider `CCn1cc[n+](C)c1.N#C[S-]` [1-ethyl-3-methylimidazolium thiocyanate], for which the surface tension liquid-gas (298.2 K) is reported as 53.3 ± 1 mN/m; the surface tension liquid-gas (308.2 K) is recorded as 52.3 ± 1 mN/m; the surface tension liquid-gas (318.2 K) turned out to be 51.8 ± 0.9 mN/m; the surface tension liquid-gas (328.2 K) came out at 50.5 ± 0.8 mN/m; the surface tension liquid-gas (338.3 K) came to 49.8 ± 1.1 mN/m; the surface tension liquid-gas (343.2 K) was determined as 49.4 ± 0.8 mN/m.
